In assay [1] the test system is HCT-116. Kind of assay: Cytotoxicity against human HCT116 cells assessed as cell viability at 10 to 500 nM after 24 hrs by WST1 assay. In kind it is functional, cell-based. For orientation: Formazan colour is commonly taken as a measure of viable cells.
The test system of assay [2] is MDA-MB-468. Briefly: Cytotoxicity against human MDA-MB-468 cells assessed as cell viability after 24 hrs by WST1 assay. The format is functional, cell-based.
In assay [3] the test system is MDA-MB-468. Kind of assay: Effect on STAT3 protein level in human MDA-MB-468 cells after 24 hrs by Western blot analysis. The format is functional, cell-based. (Immunoblotting shows a protein as a band on a membrane.)
Assay [4] concerns MCF7. Briefly: Cytotoxicity against human MCF7 cells assessed as cell viability at 10 to 500 nM after 24 hrs by WST1 assay. The format is functional, cell-based.
For assay [5], the target named is Signal transducer and activator of transcription 3 (Homo sapiens) (UniProt P40763). Kind of assay: Inhibition of STAT3 phosphorylation at Tyr705 in human MDA-MB-468 cells after 24 hrs by Western blot analysis. The format is cell-based.
Sequence of Signal transducer and activator of transcription 3 (Homo sapiens) (P40763 whole entry): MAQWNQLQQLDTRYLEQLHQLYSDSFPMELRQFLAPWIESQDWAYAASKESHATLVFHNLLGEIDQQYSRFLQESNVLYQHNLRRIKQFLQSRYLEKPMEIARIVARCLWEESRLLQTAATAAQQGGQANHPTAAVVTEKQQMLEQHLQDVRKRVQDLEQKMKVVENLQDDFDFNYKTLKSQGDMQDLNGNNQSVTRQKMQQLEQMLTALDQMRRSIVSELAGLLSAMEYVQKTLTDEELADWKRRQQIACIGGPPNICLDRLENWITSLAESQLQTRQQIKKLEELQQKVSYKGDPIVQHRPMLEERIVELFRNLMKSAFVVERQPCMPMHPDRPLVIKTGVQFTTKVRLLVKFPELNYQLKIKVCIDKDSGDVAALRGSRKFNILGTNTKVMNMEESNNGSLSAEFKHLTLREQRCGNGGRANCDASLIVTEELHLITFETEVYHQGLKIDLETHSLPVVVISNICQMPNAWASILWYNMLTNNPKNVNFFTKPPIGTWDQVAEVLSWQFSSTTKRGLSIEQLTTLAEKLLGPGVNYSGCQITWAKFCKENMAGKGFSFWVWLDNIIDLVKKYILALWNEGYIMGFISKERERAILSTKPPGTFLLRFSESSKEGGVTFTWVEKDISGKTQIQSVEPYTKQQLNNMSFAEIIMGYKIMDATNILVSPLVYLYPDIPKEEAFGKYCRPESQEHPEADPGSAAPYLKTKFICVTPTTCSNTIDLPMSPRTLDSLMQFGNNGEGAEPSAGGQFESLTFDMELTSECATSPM
For assay [6] the target is unchanged. Briefly: Inhibition of STAT3 expressed in human HeLa cells after 24 hrs by renilla dual-luciferase reporter gene assay. In kind it is cell-based. A general note: Reporter assays use an easily measured gene product as a stand-in for the process of interest.
Assay [7] has as its system DU-145. Kind of assay: Cytotoxicity against human DU145 cells assessed as cell viability after 24 hrs by WST1 assay. In kind it is functional, cell-based.
Assay [8] deals with MDA-MB-468. Briefly: Cell cycle arrest in human MDA-MB-468 cells assessed as accumulation at subG1 phase at 50 nM after 24 hrs using propidium iodide staining by FACS flow cytometry (reference value: 7.01%). In kind it is functional.
Assay [9] concerns the target Signal transducer and activator of transcription 3 (Homo sapiens) (UniProt P40763). Kind of assay: Inhibition of STAT3 phosphorylation at Ser727 in human MDA-MB-468 cells after 24 hrs by Western blot analysis. In kind it is cell-based.
Assay [10] concerns MDA-MB-468. Briefly: Cell cycle arrest in human MDA-MB-468 cells assessed as accumulation at G0/G1 phase at 500 nM after 24 hrs using propidium iodide staining by FACS flow cytometry (reference value: 49.13%). In kind it is functional.
The target of assay [11] is Signal transducer and activator of transcription 3 (Homo sapiens) (UniProt P40763). Briefly: Inhibition of STAT3 phosphorylation at Tyr705 in human MDA-MB-468 cells at 500 nM after 24 hrs by Western blot analysis. The format is cell-based.
The target is the same in assay [12]. Briefly: Suppression of STAT3 mediated VEGF expression in human MDA-MB-468 cells by immunoblotting assay. In kind it is cell-based.
The target is the same in assay [13]. Kind of assay: Inhibition of translocation of STAT3 into nucleus in human MDA-MB-468 cells at 200 nM after 24 hrs […] by immunoblotting method. In kind it is cell-based.
Assay [14] shares this target. Kind of assay: Suppression of STAT3 mediated Bcl-XL expression in human MDA-MB-468 cells assessed as complete inhibition at 200 nM by immunoblotting assay. The format is cell-based.
Assay [15] has the same target. Kind of assay: Suppression of STAT3 mediated cyclinD1 expression in human MDA-MB-468 cells at G0/G1 phase by immunoblotting assay. The format is cell-based.
Assay [16] relates to MDA-MB-468. Briefly: Cell cycle arrest in human MDA-MB-468 cells assessed as accumulation at subG1 phase at 500 nM after 24 hrs using propidium iodide staining by FACS flow cytometry (reference value: 7.01%). In kind it is functional.
Assay [17] concerns the target Signal transducer and activator of transcription 3 (Homo sapiens) (UniProt P40763). Briefly: Suppression of STAT3 mediated cyclinD1 expression in human MDA-MB-468 cells by immunoblotting assay. In kind it is cell-based.
For assay [18] the target is unchanged. Briefly: Suppression of STAT3 mediated Mcl-1 expression in human MDA-MB-468 cells assessed as complete inhibition at 200 nM by immunoblotting assay. In kind it is cell-based.
For assay [19], the system named is MDA-MB-468. Briefly: Cell cycle arrest in human MDA-MB-468 cells assessed as accumulation at subG1 phase at 200 nM after 24 hrs using propidium iodide staining by FACS flow cytometry (reference value: 7.01%). In kind it is functional.
For assay [20], the system named is MDA-MB-468. Briefly: Cell cycle arrest in human MDA-MB-468 cells assessed as accumulation at S phase at 500 nM after 24 hrs using propidium iodide staining by FACS flow cytometry (reference value: 12.46%). The format is functional.
Assay [21] has as its system MDA-MB-468. Kind of assay: Cell cycle arrest in human MDA-MB-468 cells assessed as accumulation at G2/M phase at 200 nM after 24 hrs using propidium iodide staining by FACS flow cytometry (reference value: 31.39%). The format is functional.
Assay [22] relates to MDA-MB-468. Kind of assay: Induction apoptosis in human MDA-MB-468 cells assessed as procaspase-3-mediated PARP cleavage after 24 hrs by Western blotting method. The format is functional, cell-based.
For assay [23], the target named is Signal transducer and activator of transcription 3 (Homo sapiens) (UniProt P40763). Briefly: Suppression of STAT3 mediated Mcl-1 expression in human MDA-MB-468 cells by immunoblotting assay. The format is cell-based.
In assay [24] the test system is MDA-MB-468. Kind of assay: Cell cycle arrest in human MDA-MB-468 cells assessed as accumulation at S phase at 50 nM after 24 hrs using propidium iodide staining by FACS flow cytometry (reference value: 12.46%). In kind it is functional.
The target in assay [25] is Signal transducer and activator of transcription 3 (Homo sapiens) (UniProt P40763). Kind of assay: Suppression of STAT3 mediated Bcl-XL expression in human MDA-MB-468 cells by immunoblotting assay. In kind it is cell-based.
The subject of assay [26] is MDA-MB-468. Kind of assay: Cell cycle arrest in human MDA-MB-468 cells assessed as accumulation at G2/M phase at 500 nM after 24 hrs using propidium iodide staining by FACS flow cytometry (reference value: 31.39%). The format is functional.
For assay [27], the system named is MDA-MB-468. Briefly: Cell cycle arrest in human MDA-MB-468 cells assessed as accumulation at G0/G1 phase at 200 nM after 24 hrs using propidium iodide staining by FACS flow cytometry (reference value: 49.13%). In kind it is functional.
In assay [28] the test system is MDA-MB-468. Kind of assay: Cell cycle arrest in human MDA-MB-468 cells assessed as accumulation at G2/M phase at 50 nM after 24 hrs using propidium iodide staining by FACS flow cytometry (reference value: 31.39%). The format is functional.
In assay [29] the test system is MDA-MB-468. Briefly: Cell cycle arrest in human MDA-MB-468 cells assessed as accumulation at G0/G1 phase at 50 nM after 24 hrs using propidium iodide staining by FACS flow cytometry (reference value: 49.13%). The format is functional.
The test system of assay [30] is MDA-MB-468. Kind of assay: Cell cycle arrest in human MDA-MB-468 cells assessed as accumulation at S phase at 200 nM after 24 hrs using propidium iodide staining by FACS flow cytometry (reference value: 12.46%). In kind it is functional.
The target of assay [31] is Signal transducer and activator of transcription 3 (Homo sapiens) (UniProt P40763). Kind of assay: Inhibition of translocation of STAT3 into nucleus in human MDA-MB-468 cells assessed as localization in cytoplasm at 200 nM after 24 hrs […] by Western blotting method. The format is cell-based.
Assay [32] has the same target. Kind of assay: Suppression of STAT3 mediated survivin expression in human MDA-MB-468 cells by immunoblotting assay. The format is cell-based.

The structures appear in SMILES notation. pIC50: −log10 of the molar value. The source made the active and inactive calls. The calls are words filed in the database; no cut-off is given here.

One may read the pIC50 as −log10 of the IC50, conventionally taken in molar units.

With `CC[C@@]1(O)CCc2c(O)c3c(c(O)c2[C@H]1O[C@H]1C[C@H](N(C)C)[C@@H](O[C@H]2C[C@H](O)[C@@H](O[C@H]4CC[C@H](O)[C@H](C)O4)[C@H](C)O2)[C@H](C)O1)C(=O)c1cccc(O)c1C3=O`, the outcome in assay [1], in assay [2], in [3], in assay [4] and in assay [7] was inactive. The inhibition result in assay [5] and in assay [6] was “inactive” each time.

With `CO[C@H](C(=O)[C@@H](O)[C@@H](C)O)[C@@H]1Cc2cc3cc(O[C@H]4C[C@@H](O[C@@H]5C[C@@H](O)[C@H](O)[C@@H](C)O5)[C@H](O)[C@@H](C)O4)c(C)c(O)c3c(O)c2C(=O)[C@H]1O[C@H]1C[C@@H](O[C@@H]2C[C@@H](O)[C@@H](O[C@@H]3C[C@](C)(O)[C@H](O)[C@@H](C)O3)[C@@H](C)O2)[C@H](O)[C@@H](C)O1`, the inhibition result in assay [6] is “inactive”.

On to `CC[C@@]1(O)C[C@H](O[C@H]2C[C@H](N(C)C)[C@@H](O[C@H]3C[C@H](O)[C@@H](O[C@H]4CC[C@H](O)[C@H](C)O4)[C@H](C)O3)[C@H](C)O2)c2c(O)c3c(c(O)c2[C@H]1O[C@H]1C[C@H](N(C)C)[C@@H](O[C@H]2CC[C@H](O[C@H]4CC[C@H](O)[C@H](C)O4)[C@H](C)O2)[C@H](C)O1)C(=O)c1cccc(O)c1C3=O` [COSMOMYCIN C], for which the Activity is 7.93% in assay [8]; 49.9% in assay [10]; “Dose-dependent effect” in assay [12]; 25.52% in [16]; “Dose-dependent effect” in assay [17]; 9.47% in [19]. Besides, the Activity in assay [20] is 8.78%; in assay [21], 22.18%; in assay [2], “Dose-dependent effect”; in assay [23], “Dose-dependent effect”; in [24], 10.52%; in assay [25], “Dose-dependent effect”. Moreover, the Activity in assay [26] was 15.81%; in assay [27], 59.53%; in assay [28], 26.91%; in assay [29] it was 54.64%; in [30], 8.82%; in assay [7], “Dose-dependent effect”. Also, the Activity result in assay [32] is “Dose-dependent effect”. In addition, in [9], the inhibition entry is “inactive”. Also, the result in [1], in assay [3] and in assay [4] was inactive. For the same compound, the inhibition entry in assay [11] and in assay [31] was “Active” each time. For the same compound, the result in [13], in assay [14], in [15], in [18] and in assay [22] was Active. Besides, the negative-log IC50 (pIC50) in assay [2] (MDA-MB-468, 24 h) was 6.68. The inhibition result in assay [5] and in assay [6] was “Dose-dependent effect” each time.
